Experimental data from ChEMBL document CHEMBL5356980, “Linker optimization and activity validation of a cell surface vimentin targeted homo-dimeric peptoid antagonist for lung cancer stem cells” (Bioorg Med Chem, 2024).
pIC50, pKd: −log10 of the molar value. Calls of active or inactive are those of the source. The calls are words filed in the database; no cut-off is given here.

Key:
[1] = tested on: NCI-H1299; assay: Antiproliferative activity against human NCI-H1299 cells assessed as reduction in cell viability incubated for 4 days by MTS assay; type: functional, cell-based; details: for Activity: dose 1000-100000 nM, time 4.0 day
[2] = tested on: NCI-H460; assay: Inhibition of colony formation in human NCI-H460 cells at 20 uM incubated for 8 days by crystal violet staining based analysis; type: functional, cell-based; details: time 8.0 day
[3] = molecular target: Vimentin (Homo sapiens, UniProt P08670); assay: Binding affinity to his-tagged recombinant Vimentin (unknown origin) assessed as dissociation constant by ELISA analysis
Sequence of Vimentin (P08670 whole entry): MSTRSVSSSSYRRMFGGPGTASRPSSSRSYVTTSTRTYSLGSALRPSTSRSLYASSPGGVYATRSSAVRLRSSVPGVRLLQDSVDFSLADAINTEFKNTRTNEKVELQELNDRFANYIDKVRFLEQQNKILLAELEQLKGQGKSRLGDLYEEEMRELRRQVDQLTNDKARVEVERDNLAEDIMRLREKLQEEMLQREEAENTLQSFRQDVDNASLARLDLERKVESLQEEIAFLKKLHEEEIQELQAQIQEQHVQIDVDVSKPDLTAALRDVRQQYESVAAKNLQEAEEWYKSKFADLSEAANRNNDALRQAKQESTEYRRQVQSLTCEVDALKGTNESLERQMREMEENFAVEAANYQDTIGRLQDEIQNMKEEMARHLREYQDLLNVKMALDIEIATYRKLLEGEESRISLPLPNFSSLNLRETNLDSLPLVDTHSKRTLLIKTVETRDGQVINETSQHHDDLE

Compound | Activity [1] | other results
COCCN(CC(=O)N[C@H](CCCCN)C(=O)N[C@H](CCSC)C(=O)NCC(=O)NCCCCC(NC(=O)COCCOCCNC(=O)CNC(=O)[C@@H](CCSC)NC(=O)[C@@H](CCCCN)NC(=O)CN(CCOC)C(=O)CN(Cc1ccc2c(c1)OCO2)C(=O)CN(CC(C)C)C(=O)CN(CCCCN)C(=O)CN(CCCCN)C(=O)CN(CC(C)C)C(=O)CNc1ccc(C(=O)c2ccccc2)cc1)C(N)=O)C(=O)CN(Cc1ccc2c(c1)OCO2)C(=O)CN(CC(C)C)C(=O)CN(CCCCN)C(=O)CN(CCCCN)C(=O)CN(CC(C)C)C(=O)CNc1ccc(C(=O)c2ccccc2)cc1 (stereo partly specified) | Dose-Dependent Effect | 
COCCN(CC(=O)N[C@H](CCCCN)C(=O)N[C@H](CCSC)C(=O)NCCCCC(NC(=O)CNC(=O)[C@@H](CCSC)NC(=O)[C@@H](CCCCN)NC(=O)CN(CCOC)C(=O)CN(Cc1ccc2c(c1)OCO2)C(=O)CN(CC(C)C)C(=O)CN(CCCCN)C(=O)CN(CCCCN)C(=O)CN(CC(C)C)C(=O)CNc1ccc(C(=O)c2ccccc2)cc1)C(N)=O)C(=O)CN(Cc1ccc2c(c1)OCO2)C(=O)CN(CC(C)C)C(=O)CN(CCCCN)C(=O)CN(CCCCN)C(=O)CN(CC(C)C)C(=O)CNc1ccc(C(=O)c2ccccc2)cc1 (stereo partly specified) | Dose-Dependent Effect | 
COCCN(CC(=O)N[C@H](CCCCN)C(=O)N[C@H](CCSC)C(=O)NCCOCCOCC(=O)NCCOCCOCC(=O)NCCCCC(NC(=O)COCCOCCNC(=O)COCCOCCNC(=O)[C@@H](CCSC)NC(=O)[C@@H](CCCCN)NC(=O)CN(CCOC)C(=O)CN(Cc1ccc2c(c1)OCO2)C(=O)CN(CC(C)C)C(=O)CN(CCCCN)C(=O)CN(CCCCN)C(=O)CN(CC(C)C)C(=O)CNc1ccc(C(=O)c2ccccc2)cc1)C(N)=O)C(=O)CN(Cc1ccc2c(c1)OCO2)C(=O)CN(CC(C)C)C(=O)CN(CCCCN)C(=O)CN(CCCCN)C(=O)CN(CC(C)C)C(=O)CNc1ccc(C(=O)c2ccccc2)cc1 (stereo partly specified) | Dose-Dependent Effect | 
COCCN(CC(=O)N[C@H](CCCCN)C(=O)N[C@H](CCSC)C(=O)NCCOCCOCC(=O)NCCCCC(NC(=O)COCCOCCNC(=O)[C@@H](CCSC)NC(=O)[C@@H](CCCCN)NC(=O)CN(CCOC)C(=O)CN(Cc1ccc2c(c1)OCO2)C(=O)CN(CC(C)C)C(=O)CN(CCCCN)C(=O)CN(CCCCN)C(=O)CN(CC(C)C)C(=O)CNc1ccc(C(=O)c2ccccc2)cc1)C(N)=O)C(=O)CN(Cc1ccc2c(c1)OCO2)C(=O)CN(CC(C)C)C(=O)CN(CCCCN)C(=O)CN(CCCCN)C(=O)CN(CC(C)C)C(=O)CNc1ccc(C(=O)c2ccccc2)cc1 (stereo partly specified) | Dose-Dependent Effect | 
COCCN(CC(=O)N[C@H](CCCCN)C(=O)N[C@H](CCSC)C(=O)NCC(=O)NCCCCC(NC(=O)CNC(=O)[C@@H](CCSC)NC(=O)[C@@H](CCCCN)NC(=O)CN(CCOC)C(=O)CN(Cc1ccc2c(c1)OCO2)C(=O)CN(CC(C)C)C(=O)CN(CCCCN)C(=O)CN(CCCCN)C(=O)CN(CC(C)C)C(=O)CNc1ccc(C(=O)c2ccccc2)cc1)C(N)=O)C(=O)CN(Cc1ccc2c(c1)OCO2)C(=O)CN(CC(C)C)C(=O)CN(CCCCN)C(=O)CN(CCCCN)C(=O)CN(CC(C)C)C(=O)CNc1ccc(C(=O)c2ccccc2)cc1 (stereo partly specified) | Dose-Dependent Effect | pIC50 ([1]; NCI-H1299, 96 h): 5.22
COCCN(CC(=O)N[C@H](CCCCN)C(=O)N[C@H](CCSC)C(=O)NCC(=O)NCCCCC(NC(=O)CNC(=O)CNC(=O)[C@@H](CCSC)NC(=O)[C@@H](CCCCN)NC(=O)CN(CCOC)C(=O)CN(Cc1ccc2c(c1)OCO2)C(=O)CN(CC(C)C)C(=O)CN(CCCCN)C(=O)CN(CCCCN)C(=O)CN(CC(C)C)C(=O)CNc1ccc(C(=O)c2ccccc2)cc1)C(N)=O)C(=O)CN(Cc1ccc2c(c1)OCO2)C(=O)CN(CC(C)C)C(=O)CN(CCCCN)C(=O)CN(CCCCN)C(=O)CN(CC(C)C)C(=O)CNc1ccc(C(=O)c2ccccc2)cc1 (stereo partly specified) | Dose-Dependent Effect | 
COCCN(CC(=O)N[C@H](CCCCN)C(=O)N[C@H](CCSC)C(=O)NCC(=O)NCC(=O)NCCCCC(NC(=O)CNC(=O)CNC(=O)[C@@H](CCSC)NC(=O)[C@@H](CCCCN)NC(=O)CN(CCOC)C(=O)CN(Cc1ccc2c(c1)OCO2)C(=O)CN(CC(C)C)C(=O)CN(CCCCN)C(=O)CN(CCCCN)C(=O)CN(CC(C)C)C(=O)CNc1ccc(C(=O)c2ccccc2)cc1)C(N)=O)C(=O)CN(Cc1ccc2c(c1)OCO2)C(=O)CN(CC(C)C)C(=O)CN(CCCCN)C(=O)CN(CCCCN)C(=O)CN(CC(C)C)C(=O)CNc1ccc(C(=O)c2ccccc2)cc1 (stereo partly specified) | Dose-Dependent Effect | 
COCCN(CC(=O)N[C@H](CCCCN)C(=O)N[C@H](CCSC)C(=O)NCCCCC(NC(=O)[C@@H](CCSC)NC(=O)[C@@H](CCCCN)NC(=O)CN(CCOC)C(=O)CN(Cc1ccc2c(c1)OCO2)C(=O)CN(CC(C)C)C(=O)CN(CCCCN)C(=O)CN(CCCCN)C(=O)CN(CC(C)C)C(=O)CNc1ccc(C(=O)c2ccccc2)cc1)C(N)=O)C(=O)CN(Cc1ccc2c(c1)OCO2)C(=O)CN(CC(C)C)C(=O)CN(CCCCN)C(=O)CN(CCCCN)C(=O)CN(CC(C)C)C(=O)CNc1ccc(C(=O)c2ccccc2)cc1 (stereo partly specified) | Dose-Dependent Effect | inhibition [2]: Active; pKd [3]: 6.00
